Where two headings read alike, the source gives them in different places.
Columns and labels:
[1] = race (Caucasian vs African American) or BMI
clinical = details: human, plasma, po, absolute bioavailability, oral administration
[2] = IV, cited from earlier work
[3] = injectable formulations (IV or IM or SC); cited from earlier work

With Cl.Oc1ccc2c3c1OC1[C@@H](O)CC[C@@]4(O)[C@@H](C2)N(CC2CCC2)CC[C@]314 (stereo partly drawn) [nalbuphine, 17-(cyclobutylmethyl)-4,5α-epoxymorphinian-3, 6α, 14-triol, hydrochloride] the “effect on CL/F due to race or BMI” value [1] was “no observable effect”, the bioavailability (clinical; non-elderly subjects) was 11% and the bioavailability (clinical; subjects aged older than 65 years) was roughly 44%. The volume of distribution ([2]; across the age groups) was “comparable across the age groups”, the “elimination half-life (T½)” value ([2]; children between 1.5 and 8.5 yrs) was 0.9 h and the “elimination half-life (T½)” value ([2]; elderly subjects 65-90 yrs) was 2.3 h. The “elimination half-life (T½)” value ([2]; young adults 23-32 yr of age) was 1.96 h and the half-life [3] was 2 to 3 h.

Reference: patent US20260021090A1, “METHODS OF ADM[…]” (Trevi Therapeutics, Inc., priority 2022, published 2026)
